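In this assay, cells in 96-well plates receive the compound at five concentrations for 48 hours. Endpoints are linearly interpolated between the surrounding concentrations. TGI: concentration producing complete growth inhibition.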
Experiments:
Experiment in all cases: NCI anticancer screen, dose series, 48 h
SNB-19 CNS = tested on: SNB-19 CNS
TK-10 renal = tested on: TK-10 renal
SK-OV-3 ovarian = tested on: SK-OV-3 ovarian
NCI/ADR-RES ovarian = tested on: NCI/ADR-RES ovarian
MCF7 breast = tested on: MCF7 breast
SF-295 CNS = tested on: SF-295 CNS
A549 NSCLC = tested on: A549 NSCLC
ACHN renal = tested on: ACHN renal
K-562 leukemia = tested on: K-562 leukemia
HS 578T breast = tested on: HS 578T breast
RXF 393 renal = tested on: RXF 393 renal
NCI-H460 lung = tested on: NCI-H460 lung
MALME-3M melanoma = tested on: MALME-3M melanoma
OVCAR-8 ovarian = tested on: OVCAR-8 ovarian
NCI-H522 lung = tested on: NCI-H522 lung
SK-MEL-5 melanoma = tested on: SK-MEL-5 melanoma
MOLT-4 leukemia = tested on: MOLT-4 leukemia
SK-MEL-2 melanoma = tested on: SK-MEL-2 melanoma
MDA-MB-435 = tested on: MDA-MB-435

**Q.** Which results are given for `CN(N=O)c1nc2c(C(N)=O)ncn2s1`?
**A.** TGI (SNB-19 CNS): > 100 µM; TGI (TK-10 renal): > 100 µM; TGI (SK-OV-3 ovarian): > 100 µM; TGI (NCI/ADR-RES ovarian): > 100 µM; TGI (MCF7 breast): > 100 µM; TGI (SF-295 CNS): > 100 µM; TGI (A549 NSCLC): > 100 µM; TGI (ACHN renal): > 100 µM; TGI (K-562 leukemia): > 100 µM; TGI (HS 578T breast): > 100 µM; TGI (RXF 393 renal): > 100 µM; TGI (NCI-H460 lung): > 100 µM; TGI (MALME-3M melanoma): > 100 µM; TGI (OVCAR-8 ovarian): > 100 µM; TGI (NCI-H522 lung): > 100 µM; TGI (SK-MEL-5 melanoma): > 100 µM; TGI (MOLT-4 leukemia): > 100 µM; TGI (SK-MEL-2 melanoma): > 100 µM; TGI (MDA-MB-435): > 100 µM

**Q.** `CC(C)(C)OC(=O)CCCCCNC(=O)CCCCCNC(=O)CCC(CN(CC(=O)OCc1ccccc1)CC(=O)OCc1ccccc1)N(CC(=O)OCc1ccccc1)CC(=O)OCc1ccccc1` (stereo not given) was tested. Which TGI (SNB-19 CNS) did it give?
**A.** > 100 µM

**Q.** And the TGI (TK-10 renal)?
**A.** > 100 µM

**Q.** And the TGI (SK-OV-3 ovarian)?
**A.** > 100 µM

**Q.** What about the TGI (NCI/ADR-RES ovarian) of the same molecule?
**A.** > 100 µM

**Q.** And the TGI (MCF7 breast)?
**A.** > 100 µM

**Q.** What about the TGI (SF-295 CNS) of the same molecule?
**A.** > 100 µM

**Q.** What about the TGI (A549 NSCLC) of the same molecule?
**A.** > 100 µM

**Q.** What about the TGI (ACHN renal) of the same molecule?
**A.** > 100 µM

**Q.** And the TGI (K-562 leukemia)?
**A.** > 100 µM

**Q.** What about the TGI (HS 578T breast) of the same molecule?
**A.** > 100 µM

**Q.** And the TGI (RXF 393 renal)?
**A.** > 100 µM

**Q.** And the TGI (NCI-H460 lung)?
**A.** > 100 µM

**Q.** What about the TGI (MALME-3M melanoma) of the same molecule?
**A.** > 100 µM

**Q.** What about the TGI (OVCAR-8 ovarian) of the same molecule?
**A.** > 100 µM

**Q.** What about the TGI (NCI-H522 lung) of the same molecule?
**A.** > 100 µM

**Q.** What about the TGI (SK-MEL-5 melanoma) of the same molecule?
**A.** > 100 µM

**Q.** And the TGI (MOLT-4 leukemia)?
**A.** > 100 µM

**Q.** And the TGI (SK-MEL-2 melanoma)?
**A.** > 100 µM

**Q.** What about the TGI (MDA-MB-435) of the same molecule?
**A.** > 100 µM

**Q.** `CC(Oc1ccc(Cl)cc1Cl)C(=O)NN1C(=O)CC(=O)N(c2ccccc2)C1=S` (stereo not given) was tested. Which TGI (SNB-19 CNS) did it give?
**A.** > 100 µM

**Q.** What about the TGI (TK-10 renal) of the same molecule?
**A.** > 100 µM

**Q.** And the TGI (SK-OV-3 ovarian)?
**A.** > 100 µM

**Q.** And the TGI (NCI/ADR-RES ovarian)?
**A.** > 100 µM

**Q.** What about the TGI (MCF7 breast) of the same molecule?
**A.** > 100 µM

**Q.** What about the TGI (SF-295 CNS) of the same molecule?
**A.** > 100 µM

**Q.** What about the TGI (A549 NSCLC) of the same molecule?
**A.** > 100 µM

**Q.** What about the TGI (ACHN renal) of the same molecule?
**A.** > 100 µM

**Q.** And the TGI (K-562 leukemia)?
**A.** > 100 µM

**Q.** What about the TGI (HS 578T breast) of the same molecule?
**A.** > 100 µM

**Q.** And the TGI (RXF 393 renal)?
**A.** > 100 µM

**Q.** What about the TGI (NCI-H460 lung) of the same molecule?
**A.** > 100 µM

**Q.** What about the TGI (MALME-3M melanoma) of the same molecule?
**A.** > 100 µM

**Q.** What about the TGI (OVCAR-8 ovarian) of the same molecule?
**A.** > 100 µM

**Q.** What about the TGI (NCI-H522 lung) of the same molecule?
**A.** > 100 µM

**Q.** What about the TGI (SK-MEL-5 melanoma) of the same molecule?
**A.** > 100 µM

**Q.** What about the TGI (MOLT-4 leukemia) of the same molecule?
**A.** > 100 µM

**Q.** And the TGI (SK-MEL-2 melanoma)?
**A.** > 100 µM

**Q.** What about the TGI (MDA-MB-435) of the same molecule?
**A.** > 100 µM

**Q.** What does the source list for `COC(=O)c1ccc2c(c1)CC1(C2)Cc2ccccc2C1=O` (stereo not given)?
**A.** TGI (SNB-19 CNS): > 100 µM; TGI (TK-10 renal): > 100 µM; TGI (SK-OV-3 ovarian): > 100 µM; TGI (NCI/ADR-RES ovarian): 68.6 µM; TGI (MCF7 breast): 52.5 µM; TGI (SF-295 CNS): > 100 µM; TGI (A549 NSCLC): > 100 µM; TGI (ACHN renal): > 100 µM; TGI (K-562 leukemia): > 100 µM; TGI (HS 578T breast): > 100 µM; TGI (RXF 393 renal): > 100 µM; TGI (NCI-H460 lung): > 100 µM; TGI (MALME-3M melanoma): 67.1 µM; TGI (OVCAR-8 ovarian): > 100 µM; TGI (NCI-H522 lung): > 100 µM; TGI (SK-MEL-5 melanoma): 32.6 µM; TGI (MOLT-4 leukemia): 34.4 µM; TGI (SK-MEL-2 melanoma): 69.8 µM; TGI (MDA-MB-435): 58.5 µM

**Q.** How did the TGI (SNB-19 CNS) turn out when `CCOC(=O)c1c[nH]c(C(=O)C=[N+]=[N-])c1C1CCN(CC)C1=S` (stereo not given) was run?
**A.** > 100 µM

**Q.** And the TGI (TK-10 renal)?
**A.** > 100 µM

**Q.** And the TGI (SK-OV-3 ovarian)?
**A.** > 100 µM

**Q.** What about the TGI (NCI/ADR-RES ovarian) of the same molecule?
**A.** > 100 µM

**Q.** And the TGI (MCF7 breast)?
**A.** > 100 µM

**Q.** And the TGI (SF-295 CNS)?
**A.** > 100 µM

**Q.** And the TGI (A549 NSCLC)?
**A.** > 100 µM

**Q.** And the TGI (ACHN renal)?
**A.** > 100 µM

**Q.** What about the TGI (K-562 leukemia) of the same molecule?
**A.** > 100 µM

**Q.** And the TGI (HS 578T breast)?
**A.** > 100 µM

**Q.** And the TGI (RXF 393 renal)?
**A.** > 100 µM

**Q.** And the TGI (NCI-H460 lung)?
**A.** > 100 µM

**Q.** What about the TGI (MALME-3M melanoma) of the same molecule?
**A.** > 100 µM

**Q.** And the TGI (OVCAR-8 ovarian)?
**A.** > 100 µM

**Q.** What about the TGI (NCI-H522 lung) of the same molecule?
**A.** > 100 µM

**Q.** What about the TGI (SK-MEL-5 melanoma) of the same molecule?
**A.** > 100 µM

**Q.** And the TGI (MOLT-4 leukemia)?
**A.** > 100 µM

**Q.** And the TGI (SK-MEL-2 melanoma)?
**A.** > 100 µM

**Q.** And the TGI (MDA-MB-435)?
**A.** > 100 µM
